Measured values taken from PubChem BioAssay AID330 (DTP/NCI, 2004).
Values joined by “and” are separate entries in the source; they are usually repeats but may differ in a detail not shown here. Equal entries are not always repeated. Inconclusive results and toxic doses are left out. Rule for the calls: active = survival T/C of 150% or more; inactive = T/C below 125% in these data.

Tested on: P388 leukemia ip, CD2F1 mice, survival T/C
Experiment: NCI In Vivo Anticancer Drug Screen. Data for tumor model P388 Leukemia (intraperitoneal) in CD2F1 (CDF1) mice
Details: endpoint: median survival time, higher = longer survival
How it was run: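 Mice carrying the transplanted tumor received test compound or vehicle. Survival was recorded in each group, and the value is the treated-group measurement divided by that of the vehicle-treated control group.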

[1] = dose: 100.0 mg/kg/injection, schedule: Q04DX002 (ip), vehicle: saline with Tween-80
[2] = dose: 200.0 mg/kg/injection, schedule: Q04DX002 (ip), vehicle: saline with Tween-80
[3] = dose: 50.0 mg/kg/injection, schedule: Q01DX005 (ip), vehicle: Klucel (hydroxypropylcellulose) (HPC)
[4] = dose: 25.0 mg/kg/injection, schedule: Q01DX009 (ip), vehicle: Klucel (hydroxypropylcellulose) (HPC)
[5] = dose: 60.0 mg/kg/injection, schedule: Q01DX005 (ip), vehicle: saline with Tween-80
[6] = dose: 120.0 mg/kg/injection, schedule: Q01DX005 (ip), vehicle: saline with Tween-80
[7] = dose: 240.0 mg/kg/injection, schedule: Q01DX005 (ip), vehicle: saline with Tween-80
[8] = dose: 12.5 mg/kg/injection, schedule: Q01DX009 (ip), vehicle: saline
[9] = dose: 25.0 mg/kg/injection, schedule: Q01DX009 (ip), vehicle: saline
[10] = dose: 50.0 mg/kg/injection, schedule: Q01DX009 (ip), vehicle: saline
[11] = dose: 50.0 mg/kg/injection, schedule: Q01DX009 (ip), vehicle: saline with Tween-80
[12] = dose: 100.0 mg/kg/injection, schedule: Q01DX009 (ip), vehicle: saline with Tween-80
[13] = dose: 400.0 mg/kg/injection, schedule: Q01DX009 (ip), vehicle: saline with Tween-80
[14] = dose: 200.0 mg/kg/injection, schedule: Q01DX009 (ip), vehicle: saline with Tween-80

Measured: T/C

CSCc1cc(C)ccc1NC(C)=O
inactive: dose: 50.0 mg/kg/injection, schedule: Q04DX002 (ip), vehicle: saline with Tween-80 98 % of control | dose: 100.0 mg/kg/injection, schedule: Q01DX001 (ip), vehicle: saline with Tween-80 99 % of control | [1] 98 % of control | dose: 200.0 mg/kg/injection, schedule: Q01DX001 (ip), vehicle: saline with Tween-80 99 % of control | [2] 102 % of control | dose: 400.0 mg/kg/injection, schedule: Q01DX001 (ip), vehicle: saline with Tween-80 100 % of control

CC(=O)[O][Bi]([c]1ccccc1)[c]1ccccc1
inactive: dose: 3.12 mg/kg/injection, schedule: Q01DX005 (ip), vehicle: Klucel (hydroxypropylcellulose) (HPC) 106 % of control and 108 % of control | dose: 6.25 mg/kg/injection, schedule: Q01DX005 (ip), vehicle: Klucel (hydroxypropylcellulose) (HPC) 108 % of control and 110 % of control | dose: 12.5 mg/kg/injection, schedule: Q01DX005 (ip), vehicle: Klucel (hydroxypropylcellulose) (HPC) 103 % of control and 120 % of control | dose: 25.0 mg/kg/injection, schedule: Q01DX005 (ip), vehicle: Klucel (hydroxypropylcellulose) (HPC) 118 % of control | [3] 90 % of control

NCP1(=O)CNC(=O)NC1
inactive: dose: 50.0 mg/kg/injection, schedule: Q01DX005 (ip), vehicle: saline 116 % of control | dose: 100.0 mg/kg/injection, schedule: Q01DX005 (ip), vehicle: saline 103 % of control | dose: 200.0 mg/kg/injection, schedule: Q01DX005 (ip), vehicle: saline 113 % of control

O=C1OC2(C=C1Br)CCC21C=C(Br)C(=O)O1 (stereo unspecified)
inactive: [4] 98 % of control

Clc1nn2nnnc2c2ccccc12
inactive: dose: 5.0 mg/kg/injection, schedule: Q01DX009 (ip), vehicle: saline 100 % of control and 96 % of control | dose: 10.0 mg/kg/injection, schedule: Q01DX009 (ip), vehicle: saline 95 % of control and 97 % of control | dose: 20.0 mg/kg/injection, schedule: Q01DX009 (ip), vehicle: saline 89 % of control and 94 % of control | dose: 40.0 mg/kg/injection, schedule: Q01DX009 (ip), vehicle: saline 100 % of control and 91 % of control

N[C@@H](CSSc1ccccc1C(=O)O)C(=O)O
inactive: dose: 100.0 mg/kg/injection, schedule: Q04DX002 (ip), vehicle: Klucel (hydroxypropylcellulose) (HPC) 103 % of control | dose: 200.0 mg/kg/injection, schedule: Q04DX002 (ip), vehicle: Klucel (hydroxypropylcellulose) (HPC) 107 % of control | dose: 400.0 mg/kg/injection, schedule: Q04DX002 (ip), vehicle: Klucel (hydroxypropylcellulose) (HPC) 105 % of control

COc1cc(Br)c(C(=O)N2CCc3cc([N+](=O)[O-])ccc32)cc1OC
inactive: dose: 25.0 mg/kg/injection, schedule: Q01DX009 (ip), vehicle: other 101 % of control | dose: 50.0 mg/kg/injection, schedule: Q01DX009 (ip), vehicle: other 93 % of control | dose: 100.0 mg/kg/injection, schedule: Q01DX009 (ip), vehicle: other 89 % of control | dose: 200.0 mg/kg/injection, schedule: Q01DX009 (ip), vehicle: other 87 % of control

Cc1cnc(NS(=O)(=O)c2ccc(N)cc2)nc1-c1ccccc1O
inactive: [5] 100 % of control | [6] 93 % of control | [7] 86 % of control

CC(=O)OC1CCN(C)CC1CCl (stereo unspecified)
inactive: [8] 110 % of control | [9] 105 % of control | [10] 105 % of control and 114 % of control

CN1C(=O)C(=Cc2ccc(O)cc2)C(=O)N(C)C1=O
inactive: [11] 112 % of control and 113 % of control | [12] 118 % of control and 123 % of control | [13] 86 % of control

O=c1c2ccccc2oc2cc3c(c(O)c12)CCCC3
inactive: dose: 12.5 mg/kg/injection, schedule: Q01DX005 (ip), vehicle: saline with Tween-80 91 % of control | dose: 25.0 mg/kg/injection, schedule: Q01DX005 (ip), vehicle: saline with Tween-80 97 % of control

NC(=S)NNCCC(=O)Nc1ccccc1C(F)(F)F
inactive: [5] 94 % of control | [6] 94 % of control | [7] 96 % of control

Nc1nc2ncnc(N)c2nc1-c1ccc(N(CCO)CCO)cc1
inactive: dose: 60.0 mg/kg/injection, schedule: Q01DX005 (ip), vehicle: Klucel (hydroxypropylcellulose) (HPC) 91 % of control | dose: 120.0 mg/kg/injection, schedule: Q01DX005 (ip), vehicle: Klucel (hydroxypropylcellulose) (HPC) 90 % of control | dose: 240.0 mg/kg/injection, schedule: Q01DX005 (ip), vehicle: Klucel (hydroxypropylcellulose) (HPC) 91 % of control

Cc1c(N)n[nH]c1-c1ccccc1
inactive: dose: 50.0 mg/kg/injection, schedule: Q01DX001 (ip), vehicle: Klucel (hydroxypropylcellulose) (HPC) 100 % of control | dose: 100.0 mg/kg/injection, schedule: Q01DX001 (ip), vehicle: Klucel (hydroxypropylcellulose) (HPC) 99 % of control | dose: 200.0 mg/kg/injection, schedule: Q01DX001 (ip), vehicle: Klucel (hydroxypropylcellulose) (HPC) 106 % of control

CC(=O)OCC1=CC2OC(=O)C3=COC(OC4OC(CO)C(O)C(O)C4O)C1C32 (stereo unspecified)
inactive: [8] 93 % of control | [4] 88 % of control | [9] 98 % of control | dose: 50.0 mg/kg/injection, schedule: Q01DX009 (ip), vehicle: Klucel (hydroxypropylcellulose) (HPC) 88 % of control | [10] 98 % of control | dose: 50.0 mg/kg/injection, schedule: Q04DX002 (ip), vehicle: saline 107 % of control | dose: 100.0 mg/kg/injection, schedule: Q01DX009 (ip), vehicle: Klucel (hydroxypropylcellulose) (HPC) 89 % of control | dose: 100.0 mg/kg/injection, schedule: Q04DX002 (ip), vehicle: saline 101 % of control | dose: 200.0 mg/kg/injection, schedule: Q04DX002 (ip), vehicle: saline 99 % of control

CC(=O)/C(=C(\c1ccccc1)N1CCOCC1)N1CCOCC1
inactive: [3] 99 % of control | dose: 100.0 mg/kg/injection, schedule: Q01DX005 (ip), vehicle: Klucel (hydroxypropylcellulose) (HPC) 100 % of control | dose: 200.0 mg/kg/injection, schedule: Q01DX005 (ip), vehicle: Klucel (hydroxypropylcellulose) (HPC) 107 % of control

COc1ccc2nc3cc(Cl)ccc3c(NCCCCN3CCCC3)c2n1
inactive: dose: 12.5 mg/kg/injection, schedule: Q01DX009 (ip), vehicle: water 101 % of control | dose: 25.0 mg/kg/injection, schedule: Q01DX009 (ip), vehicle: water 105 % of control

CC(C)(C)N=C(Cc1ccccc1)N1CCOCC1
inactive: [11] 119 % of control | [12] 96 % of control | [14] 90 % of control

CN(C)c1ccc(CN2CCCN(Cc3ccc(N(C)C)cc3)C2c2cc(Cl)ccc2O)cc1
inactive: [12] 95 % of control | [14] 90 % of control | [13] 90 % of control

CCOc1ccc2c(N=[N+]=[N-])cc(C)nc2c1
inactive: dose: 30.0 mg/kg/injection, schedule: Q01DX005 (ip), vehicle: saline with Tween-80 94 % of control | [5] 103 % of control and 91 % of control | [6] 92 % of control

O=C(O)C(OC(=O)C(F)(F)F)C(F)(F)C(F)(F)C(F)(F)F (stereo unspecified)
inactive: [5] 95 % of control | [6] 89 % of control | [7] 99 % of control

CCCC(NC(=O)c1ccccc1)C(=O)O (stereo unspecified)
inactive: [11] 100 % of control | [12] 99 % of control | [14] 99 % of control

OCC(O)C1OC(c2ccccc2)OC2COC(c3ccccc3)OC21 (stereo unspecified)
inactive: [1] 97 % of control | [2] 86 % of control | dose: 400.0 mg/kg/injection, schedule: Q04DX002 (ip), vehicle: saline with Tween-80 89 % of control

C=C1C(=O)O[C@@H]2C3=C(C)C(=O)CC[C@]3(C)CC[C@@H]12
inactive: [1] 108 % of control

COC(=O)C1C(O)CCC2CN3CCc4c([nH]c5cc(OC)ccc45)C3CC21 (stereo unspecified)
inactive: dose: 20.0 mg/kg/injection, schedule: Q01DX005 (ip), vehicle: DMSO 104 % of control | dose: 40.0 mg/kg/injection, schedule: Q01DX005 (ip), vehicle: DMSO 111 % of control | dose: 80.0 mg/kg/injection, schedule: Q01DX005 (ip), vehicle: DMSO 102 % of control | dose: 160.0 mg/kg/injection, schedule: Q01DX005 (ip), vehicle: DMSO 100 % of control

O=C(Nc1ccc(C2=NCCN2)cc1)c1cc2cc(C3=NCCN3)ccc2o1
inactive: dose: 12.5 mg/kg/injection, schedule: Q04DX003 (ip), vehicle: suspension in saline 100 % of control | dose: 25.0 mg/kg/injection, schedule: Q04DX003 (ip), vehicle: suspension in saline 102 % of control | dose: 50.0 mg/kg/injection, schedule: Q04DX003 (ip), vehicle: suspension in saline 100 % of control
